Assay results reported in patent publication US4148787A, “Antidiuretically effective polypeptide and a process for preparing the same” (Ferring AB, priority 1976, dated 1979).

How the values were obtained:
[1] = Relative antidiuretic activity in relation to DDAVP; assay type: in vivo; conditions: relative activity figure, DDAVP arbitrarily set at 1.00
Source text: (§1) Thus, the strenghts in Table I are expressed as relative activity figures, data for DDAVP as a comparative compound being arbitrarily set at 1.00.

[2] = Relative blood pressure (raising) activity in relation to DDAVP; assay type: in vivo
Source text: as §1

[3] = Relative uterotonic activity in relation to DDAVP; conditions: relative activity figure, DDAVP arbitrarily set at 1.00
Source text: as §1

Row | Compound | Antidiuresis (relative activity) [1] | Blood pressure (relative activity) ([2]; in vivo) | Uterotonic (relative activity) [3] | Blood pressure (relative activity) ([2]; relative activity figure, DDAVP arbitrarily set at 1.00)
1 | NC(=O)CC[C@@H]1NC(=O)[C@H](Cc2ccccc2)NC(=O)[C@H](Cc2ccc(O)cc2)NC(=O)[C@@H](N)CSSC[C@@H](C(=O)N2CCC[C@H]2C(=O)N[C@@H](CCCN=C(N)N)C(=O)NCC(N)=O)NC(=O)[C@H](CC(N)=O)NC1=O [Arg-vasopressin, arginine-vasopressin] | 0.10 | 1450 | 1.0 | 
2 | NC(=O)CC[C@@H]1NC(=O)[C@H](Cc2ccccc2)NC(=O)[C@H](Cc2ccc(O)cc2)NC(=O)CCSSC[C@@H](C(=O)N2CCC[C@H]2C(=O)N[C@H](CCCN=C(N)N)C(=O)NCC(N)=O)NC(=O)[C@H](CC(N)=O)NC1=O [DDAVP, desamino-D-arginine^8 -vasopressin] | 1.00 |  | 1.00 | 1.00
